Measured values taken from publication PMC7156724, “Potent BRD4 inhibitor suppresses cancer cell-macrophage interaction” (Nature Communications, 2020).
Where “and” joins values, the source holds several entries; their conditions need not be identical. Identical values can stand only once.

Legend:
A375 melanoma cells = test: AlamarBlue assay, A375; assay type: cell-based, human; details: for Cellular activity in melanoma cells (A375), alamarBlue: Fig.1g, replicates
Description: 3. AlamarBlue assay. AlamarBlue was made by resazurin sodium salt (Sigma, Cat
# 199303) dissolved in PBS.
NCI-H211, MDA-MB231 and A375 cells were plated in 96-well plates at approximately 30% confluence and left overnight to adhere. In the following day, […]
of treatment, 10 μl AlamarBlue reagent (0.3 mg/ml) was added to each well, and after 18h, the florescence intensity in each well was measured using a top-reading fluorescent plate reader with excitation at 530 nm and emission at 590 nm. […]

ES-2 cells = test: MTT cell growth assay, ES-2; assay type: cell-based, human; details: 5 days
Description: Fig. 2 NHWD-870 inhibited BRD4 phosphorylation and c-MYC expression, and suppressed cell growth. a Representative western blot analysis of p-BRD4 (s484/488), BRD4, c-MYC, and GAPDH after treatment of MDA-MB231, SUM159, A2780 ES-2, and H526 cells with JQ-1 or NHWD-870 at the indicated concentrations for 24 h. GAPDH served as the loading control. Selected from three independent experiments. b MTT assays of H526, A2780, ES-2, and MDA-MB231 cells treated with JQ-1 or NHWD-870 at the indicated concentrations for 5 days. Data are presented as mean ± SEM from three independent experiments. c, d Clonogenic assays of H526, A2780, ES-2 and MDA-MB231 cells treated with 250 nM JQ-1 or NHWD-870 for 5 days. Shown are representative images (c) and quantification of colonies (d). […] Shown are representative images (e) and quantification of relative colony sizes (f). Scale bar, 50 μm. Data are presented as mean ± SEM from five independent experiments. p values were calculated using two-tailed, unpaired t tests in this figure. **p < 0.01; ***p < 0.001. Source data are provided as a Source Data file.
37℃, 5% CO2. […]

A2780 tumors = test: Orthotopic OC model with CSF1 overexpressing A2780 cells, NHWD-870 treatment; assay type: in vivo, mouse; design: Tumor weight (Fig.6k) / Ascitic fluid (Fig.6l): unit not given here
Description: Fig. 6 CSF1/CSF1R signaling is critical for the tumor inhibitory effects of NHWD-870 and CSF1 induced ovarian cancer growth depends on macrophages. a Number of TAMs after treatment with the indicated concentration of CSF1 for 48 h. Data are presented as mean ± SEM from three independent experiments. b–d Schematics of the experiments (b). A2780 cells (pre-treated with DMSO or 100 nM NHWD-870 for 48 h) were seeded into the top chamber (transwell size: 0.4 μm), and TAMs (Mac, 40,000 cells per 24-well) in medium with PBS or 10 ng/ml CSF1 (c), or 50 ng/ml IgG or anti-CSF1R antibodies (d), were seeded into the bottom chamber. Shown are quantification of TAMs (c, d). Data are presented as mean ± SEM from three independent experiments. e Representative western blot analysis of A2780 cells stably transfected with CSF1 or empty vector (EV). Selected from three independent experiments. f Schematics of the animal experiments using an orthotopic mouse OC model, established by intraperitoneally injecting 1 × 10^6 (g–j) or 2 × 10^6 (k–m) human A2780 cells overexpressing CSF1 or control into female recipient nude mice. Mice were then treated with/without liposomal clodronate (LC) for 45 days (g–j) or treated with/without NHWD-870 (PO, QD, 3 mg/kg) for 37 days (k–m). g Increased mouse body weight was measured at the indicated time points (day 0-45 after LC treatment). h–j Net tumor weight (h), ascitic fluid volumes (i) tumor implantations in peritoneum, omentum and pevic cavity (j) were measured at day 45 from LC treatment. k–m Net tumor weight (k), ascitic fluid volumes (l) tumor implantations in peritoneum, omentum and pevic cavity (m) were measured at day 37 after NHWD-870 treatment. For g–m, data are presented as mean ± SEM from five different mice. p values were calculated using two-tailed, unpaired t tests in this figure. n.s, not significant; *p < 0.05; **p < 0.01; and ***p < 0.001. Source data are provided as a Source Data file.
4–6 weeks old female BALB/c nude mice were used for most experiments, with the exception of 6–8 weeks old female C57BL/6 mice were used for B16F10 experiments, and 6–8 weeks old male BALB/c nude mice and SD rats were used for pharmacokinetic experiments. All animals were purchased from Shanghai SIPPR-Bk Lab Animal Co., Ltd. All animals were housed under a regimen of 12 h light/12 h dark cycles and specific pathogen-free conditions. 5×10^6 NCI-H526, ES-2, MDA-MB231, A2780, A375, B16F10, and TMD-8 cells (0.1 ml) were injected subcutaneously into female nude mice. The melanoma patient-derived xenograft model was derived from a human melanoma sample (BRAF, NARS and NF1 wild type, and p53 mutant) removed from a patient in Xiangya Hospital. Surgically removed tumor fragments were implanted subcutaneously into female NSG mice. When the tumors grew to ~1000 mm^3, they were harvested and cryopreserved or immediately re-implanted for expansion or experiments. Mouse body weight and tumor sizes were measured every 3 days. Once the tumors grew to 150–200 mm^3, mice were treated with the compounds as described in the Figures. 1 × 10^6 A2780 cells (1 ml) were injected into the abdominal cavity of nude mice. Ascitic volume and tumor weight were measured by an electronic balance. All the procedures were evaluated and approved by the Institutional Animal Care and Use Committee of Central South University and Yale University.

[1] = CSF-1 overexpressing A2780 cells

## Cc1nnn(C)c1-c1cnc2c3c4cnn(C)c4ccc3n([C@H](c3ccccc3)C3CCOCC3)c2c1 [NHWD-870]
A375 melanoma cells; A375 cells
  fold more potent than GSK-525762 or OTX015: about 14 fold
  fold more potent than I-BET151: about 23 fold
A375 melanoma cells; concentration(nM) 0.21442
  Cellular activity in melanoma cells (A375), alamarBlue: 0.8628 and 1.0579
A375 melanoma cells; concentration(nM) 0.31236
  Cellular activity in melanoma cells (A375), alamarBlue: 16.3424 and 12.5613
A375 melanoma cells; concentration(nM) 0.4103
  Cellular activity in melanoma cells (A375), alamarBlue: 30.3045 and 25.7042
A375 melanoma cells; concentration(nM) 0.6032
  Cellular activity in melanoma cells (A375), alamarBlue: 65.3038 and 63.4524
A375 melanoma cells; concentration(nM) 1.2043
  Cellular activity in melanoma cells (A375), alamarBlue: 75.3216 and 83.4358
A375 melanoma cells; concentration(nM) 1.8024
  Cellular activity in melanoma cells (A375), alamarBlue: 92.8346 and 91.942
A375 melanoma cells; concentration(nM) 2.4
  Cellular activity in melanoma cells (A375), alamarBlue: 100.774 and 99.5602
A375 melanoma cells; concentration(nM) 3
  Cellular activity in melanoma cells (A375), alamarBlue: 101.341 and 101.79
A375 melanoma cells; Homo sapiens, A-375, nM printed in b8, the picture prints no unit, read-out: IC50, cellular activity in A375 (alamarBlue)
  IC50: 2.46 nM
ES-2 cells; ES-2, 0.1 nM
  MTT assay, relative cell number: 0.993 and 0.983 and 0.961
ES-2 cells; ES-2, 1 nM
  MTT assay, relative cell number: 0.911 and 0.921 and 0.934
ES-2 cells; ES-2, 10 nM
  MTT assay, relative cell number: 0.355 and 0.301 and 0.382
ES-2 cells; ES-2, 500 nM
  MTT assay, relative cell number: 0
ES-2 cells; ES-2, 1000 nM
  MTT assay, relative cell number: 0
ES-2 cells; ES-2, 5000 nM
  MTT assay, relative cell number: 0
ES-2 cells; ES-2, 10000 nM
  MTT assay, relative cell number: 0
A2780 tumors; [1]
  Ascitic fluid (Fig.6l): 2.5 and 3.8 and 4.1 and 3.5 and 2.1
  Tumor nodules, Omentum (Fig.6m): 8 and 13 and 10 and 16 and 12
  Tumor nodules, Pelvic (Fig.6m): 45 and 54 and 36 and 64 and 51
  Tumor weight (Fig.6k): 375 and 345 and 367 and 276 and 305
A2780 tumors; PO, QD, 3 mg/kg, 37 days
  tumor inhibitory effects on CSF1 overexpressing A2780 tumors: strongly mitigated the tumor inhibitory effects
